# Results from patent US20230165252A1, “ACTIVE COMPOUND COMBINATIONS” (Bayer Aktiengesellschaft, priority 2020, published 2023).
# Experiment: Measurement of Log P values by HPLC on reversed phase columns (EEC directive 79/831 Annex V.A8), methods [a], [b], [c]
# Assay type: physicochemical
# Conditions: HPLC method [a]
# Description: Measurement of Log P values as provided herein was performed according to EEC directive 79/831 Annex V.A8 by HPLC (High Performance Liquid Chromatography) on reversed phase columns with the following methods: • ^[a]
row,SMILES,LogP
1,C=C(C)c1cc(C(=O)NCC(F)(F)c2ccc(C)cc2C)c(Oc2cccc(C(F)(F)F)c2)nn1 [I-222],4.87^[a]
2,COc1ccc(CCNC(=O)c2cc(Cl)nnc2Oc2cccc(C(F)(F)F)c2)cc1OC [I-268],3.26^[a]
3,O=C(NCC(F)(F)c1ccc(Cl)cc1)c1c(Oc2cccc(C(F)(F)F)c2)nnc(Cl)c1NC1CCCCC1 [I-272],4.98^[a]
4,O=C(NCc1cnc2ccccc2c1)c1cc(Cl)nnc1Oc1cccc(C(F)(F)F)c1 [I-306],2.71^[a]

# Same assay, conditions: HPLC method [b]
row,SMILES,LogP
1,Cc1cc(C(=O)NCCc2ccc(C(F)F)cn2)c(Oc2cccc(C3CC3)c2)nn1 [I-282],2.82^[b]

# Same assay, conditions: HPLC on reversed phase column, method [a]
row,SMILES,LogP
1,COc1ccc(C(F)(F)CNC(=O)c2cc(Cl)nnc2Oc2cccc(C(F)(F)F)c2)c(Cl)c1 [I-007],4.00^[a]
2,Cc1cc(C(=O)NCC(F)(F)c2ccc(C3CCCCC3)cc2Cl)c(Oc2cccc(C(F)(F)F)c2)nn1 [I-018],5.44^[a]
3,Cc1cc(C(=O)NCC(F)(F)c2ccc(C3CCC3)cc2Cl)c(Oc2cccc(C(F)(F)F)c2)nn1 [I-028],4.83^[a]
4,COc1ccc(CCNC(=O)c2cc(Cl)nnc2Oc2cccc(C(F)(F)F)c2)cc1 [I-036],3.61^[a]
5,O=C(NCCc1ncccc1C(F)(F)F)c1cc(Cl)nnc1Oc1cccc(C(F)(F)F)c1 [I-037],3.65^[a]
6,Cc1ccc(C(F)(F)CNC(=O)c2c(Oc3cccc(C(F)(F)F)c3)nnc(Cl)c2NCC(C)(C)O[Si](C)(C)C)c(C)c1 [I-064],6.32^[a]
7,O=C(NCC(F)(F)c1ccc(F)cc1F)c1cc(Cl)nnc1Oc1cccc(C(F)(F)F)c1 [I-067],3.75^[a]
8,O=C(NCCc1ccc(C(F)(F)F)cn1)c1cc(Cl)nnc1Oc1cccc(C(F)(F)F)c1 [I-068],3.53^[a]
9,Cc1ccc(C(F)(F)CNC(=O)c2c(Oc3cccc(C(F)(F)F)c3)nnc(Cl)c2[S+](C)[O-])c(C)c1 (stereo not drawn) [I-072],3.75^[a]
10,CC(CNC(=O)c1cc(Cl)nnc1Oc1cccc(C(F)(F)F)c1)c1ccc(Cl)cc1Cl (stereo not drawn) [I-075],4.68^[a]
11,CC(=O)N(C)Cc1c(Cl)nnc(Oc2cccc(C(F)(F)F)c2)c1C(=O)NCCc1ccc(C)cc1C [I-077],3.65^[a]
12,O=C(NCC(F)(F)c1ccc(SCC(F)(F)F)cc1Cl)c1cc(Cl)nnc1Oc1cccc(C(F)(F)F)c1 [I-087],4.45^[a]
13,O=C(NCC(F)(F)c1ccc(Cl)cn1)c1cc(Cl)nnc1Oc1cccc(C(F)(F)F)c1 [I-108],3.65^[a]
14,O=C(NCC(F)(F)c1ccc(Cl)cn1)c1cc(Cl)nnc1Oc1cccc(C(F)F)c1 [I-158],3.32^[a]
15,Cc1ccc(C(F)(F)CNC(=O)c2cc(Cl)nnc2Oc2cncc(Br)c2)c(C)c1 [I-173],3.78^[a]
16,CCOc1c(Cl)nnc(Oc2cccc(C(F)(F)F)c2)c1C(=O)NCC(F)(F)c1ccc(C)cc1C [I-181],4.68^[a]
17,Cc1cnnc(Oc2cccc(C(F)(F)F)c2)c1C(=O)NCC(F)(F)c1ccc(Cl)cc1Cl [I-183],3.78^[a]
18,Cc1c(Cl)nnc(Oc2cccc(C3CC3)c2F)c1C(=O)NCCc1ccc(Cl)cc1Cl [I-215],4.58^[a]

# Same assay, conditions: method [a]: LC-UV, acidic range, 0.1% formic acid in water and acetonitrile as eluent (10% to 95% acetonitrile); Table 3, compounds of formula (1)
row,SMILES,LogP
1,CNc1c(Cl)nnc(Oc2cccc(C3CC3)c2F)c1C(=O)O [Compound 1-116],1.97^[a]
2,Cc1c(Cl)nnc(Oc2cccc(C(F)F)c2F)c1C(=O)O [Compound 1-117],1.49^[a]
3,Cc1c(Cl)nnc(Oc2cccc(Cl)c2F)c1C(=O)O [Compound 1-122],1.68^[a]
4,Cc1cc(C(=O)O)c(Oc2cccc(C(F)(F)F)c2)nn1 [Compound 1-125],1.92^[a]
5,O=C(O)c1cc(I)nnc1Oc1cccc(C(F)(F)F)c1 [Compound 1-127],2.08^[a]

# Same assay, conditions: method [a]: LC-UV, acidic range, 0.1% formic acid in water and acetonitrile as eluent; Table 5, compounds of formula (2)
row,SMILES,LogP
1,C#Cc1ccc(C(F)(F)CN)c(C)c1 [Compound 2-01],0.93^[a]
2,Cc1cc(C)c(C(F)(F)CN)c(F)c1 [Compound 2-03],0.95^[a]
3,NCC(F)(F)c1cccc(Br)c1Cl [Compound 2-04],0.87^[a]

# Same assay, conditions: method [a]: LC-UV, acidic range, 0.1% formic acid in water and acetonitrile as eluent; Table 9, compounds of formula (4)
row,SMILES,LogP
1,CC=Cc1cccc(O)c1F [Compound 4-01],2.33^[a]

# Same assay, conditions: reversed-phase HPLC column, HPLC method [a]
row,SMILES,chromatographic logP
1,"Cc1cc(C2CC2)ccc1C(F)(F)CNC(=O)c1cc(Cl)nnc1Oc1cccc(C(F)(F)F)c1 [Compound I-240, 6-chloro-N-[2-(4-cyclopropyl-2-methyl-phenyl)-2,2-difluoro-ethyl]-3-[3-(tri-fluoromethyl)phenoxy]pyridazine-4-carboxamide]",4.77
2,"CCc1c(Cl)nnc(Oc2cccc(C(F)(F)F)c2)c1C(=O)NCC(F)(F)c1ccc(Cl)cc1 [Compound I-254, 6-chloro-N-[2-(4-chlorophenyl)-2,2-difluoro-ethyl]-5-ethyl-3-[3-(trifluoromethyl)phenoxy]pyridazine-4-carboxamide]",4.51
3,"COC(=O)N(CC(F)(F)c1ccc(C)cc1C)C(=O)c1cc(Cl)nnc1Oc1cccc(C(F)(F)F)c1 [Compound I-335, methyl N-[6-chloro-3-[3-(trifluoromethyl)phenoxy]pyridazine-4-carbonyl]-N-[2-(2,4-dimethylphenyl)-2,2-difluoro-ethyl]carbamate]",5.19
4,"Cc1ccc(C(F)(F)CNC(=O)c2c(Oc3cccc(C(F)(F)F)c3)nnc(Cl)c2NC2COC2)c(C)c1 [Compound I-408, 6-chloro-N-[2-(2,4-dimethylphenyl)-2,2-difluoro-ethyl]-5-(oxetan-3-ylamino)-3-[3-(trifluoromethyl)phenoxy]pyridazine-4-carboxamide]",3.85

# Same assay, conditions: reversed-phase HPLC column, HPLC method [b]
row,SMILES,chromatographic logP
1,"Cc1ccc(C(F)(F)CNC(=O)c2c(Oc3cccc(C(F)(F)F)c3)nnc(Cl)c2NC2COC2)c(C)c1 [Compound I-408, 6-chloro-N-[2-(2,4-dimethylphenyl)-2,2-difluoro-ethyl]-5-(oxetan-3-ylamino)-3-[3-(trifluoromethyl)phenoxy]pyridazine-4-carboxamide]",3.94

# Same assay, conditions: reversed-phase HPLC column, HPLC on reversed phase column, method [a]
row,SMILES,chromatographic logP
1,"Cc1ccc(C(F)(F)CNC(=O)c2cc(Cl)nnc2Oc2cccc(C(F)(F)F)c2)c(C)c1 [Compound I-014, 6-chloro-N-[2-(2,4-dimethylphenyl)-2,2-difluoro-ethyl]-3-[3-(trifluoromethyl)phenoxy]pyridazine-4-carboxamide]",4.46
2,"Cc1ccc(C(F)(F)CNC(=O)c2c(Oc3cccc(C(F)(F)F)c3)nnc(Cl)c2I)c(C)c1 [Compound I-020, 6-chloro-N-[2-(2,4-dimethylphenyl)-2,2-difluoro-ethyl]-5-iodo-3-[3-(trifluoromethyl)phenoxy]pyridazine-4-carboxamide]",4.61
3,"COCCc1c(Cl)nnc(Oc2cccc(C(F)(F)F)c2)c1C(=O)NCC(F)(F)c1ccc(Br)cc1Cl [Compound I-070, N-[2-(4-bromo-2-chloro-phenyl)-2,2-difluoro-ethyl]-6-chloro-5-(2-methoxyethyl)-3-[3-(trifluoromethyl)phenoxy]pyridazine-4-carboxamide]",4.77
4,"Cc1ccc(CCNC(=S)c2cc(C)nnc2Oc2cccc(C(F)(F)F)c2)c(C)c1 [Compound I-094, N-[2-(2,4-dimethylphenyl)ethyl]-6-methyl-3-[3-(trifluoro-methyl)phenoxy]pyridazine-4-carbothioamide]",4.69
5,"Cc1ccc(C(F)(F)CNC(=O)c2c(Oc3cccc(C4CC4)c3F)nnc(Cl)c2C)c(Br)c1 [Compound I-840, N-[2-(2-bromo-4-methylphenyl)-2,2-difluoroethyl]-6-chloro-3-(3-cyclopropyl-2-fluoro-phenoxy)-5-methylpyridazine-4-carboxamide]",4.57

# Same assay, conditions: reversed-phase HPLC column, method [a]
row,SMILES,chromatographic logP
1,"O=C(NCC(F)(F)c1ccc(Br)cc1Cl)c1cc(Cl)nnc1Cl [Compound 3-10, N-[2-(4-bromo-2-chloro-phenyl)-2,2-difluoro-ethyl]-3,6-dichloro-pyridazine-4-carboxamide]",3.29
2,"Cc1ccc(C(F)(F)CNC(=O)c2cc(I)nnc2Oc2cccc(C(F)(F)F)c2)c(C)c1 [Compound I-461, N-[2-(2,4-dimethylphenyl)-2,2-difluoro-ethyl]-6-iodo-3-[3-(trifluoromethyl)phenoxy]pyridazine-4-carboxamide]",4.67
3,"O=C(NCC(F)(F)c1ccc(Br)cc1Cl)c1cc(Cl)nnc1Oc1cccc(F)c1F [Compound I-530, N-[2-(4-bromo-2-chloro-phenyl)-2,2-difluoro-ethyl]-6-chloro-3-(2,3-difluorophenoxy)pyridazine-4-carboxamide]",4.27
4,"Cc1ccc(C(F)(F)CNC(=O)c2c(Oc3cccc(C(F)(F)F)c3)nnc(Cl)c2-c2cccnc2)c(C)c1 [Compound I-550, 6-chloro-N-[2-(2,4-dimethylphenyl)-2,2-difluoro-ethyl]-5-(3-pyridyl)-3-[3-(trifluoromethyl)phenoxy]pyridazine-4-carboxamide]",3.99
5,"Cc1ccc(C(F)(F)CNC(=O)c2cc(C)nnc2Oc2cccc(C3CCC3)c2)c(C)c1 [Compound I-564, 3-(3-cyclobutylphenoxy)-N-[2-(2,4-dimethylphenyl)-2,2-difluoro-ethyl]-6-methyl-pyridazine-4-carboxamide]",3.85
6,"CSc1cc(C(=O)NCC(F)(F)c2ccc(C)cc2C)c(Oc2cccc(C(F)(F)F)c2)nn1 [Compound I-767, N-[2-(2,4-dimethylphenyl)-2,2-difluoro-ethyl]-6-methylsulfanyl-3-[3-(trifluoromethyl)phenoxy]pyridazine-4-carboxamide]",4.72
7,"Cc1ccc(C(F)(F)CNC(=O)c2c(Oc3cccc(Cl)c3)nnc(Cl)c2C)c(C)c1 [Compound I-790, 6-chloro-3-(3-chlorophenoxy)-N-[2-(2,4-dimethylphenyl)-2,2-difluoro-ethyl]-5-methyl-pyridazine-4-carboxamide]",4.27

# Same assay, conditions: reversed-phase HPLC column, method [a]: LC-UV, acidic range, 0.1% formic acid in water and acetonitrile as eluent (10% to 95% acetonitrile); Table 3, compounds of formula (1)
row,SMILES,chromatographic logP
1,CCOC(=O)c1cc(Cl)nnc1Oc1cccc(Cl)c1F [Compound 1-119],3.6
2,CCOC(=O)c1c(Oc2cccc(Cl)c2F)nnc(Cl)c1C [Compound 1-121],3.88
3,COC(=O)c1cc(Cl)nnc1Oc1cccc(C(F)F)c1 [Compound 1-124],2.76
4,CCOC(=O)c1cc(Cl)nnc1Oc1cccc(Br)c1 [Compound 1-130],3.65

# Same assay, conditions: reversed-phase HPLC column, method [b]
row,SMILES,chromatographic logP
1,"O=C(NCC(F)(F)c1ccc(Br)cc1Cl)c1cc(Cl)nnc1Cl [Compound 3-10, N-[2-(4-bromo-2-chloro-phenyl)-2,2-difluoro-ethyl]-3,6-dichloro-pyridazine-4-carboxamide]",3.24
